This assay has as its system Nx rats (5/6 nephrectomy, hypertensive chronic kidney disease). As to the kind of experiment: Nx rats treated with various HIF prolyl hydroxylase inhibitors, change in systolic blood pressure after four weeks, Example 4. It is filed as in vivo, rat. As to the method:
A characteristic pathophysiology found in the uremic chronic kidney disease (CKD) population is hypertension. […] (Priyadarshi et al. (2002) Kidney Int 61:542-546; Coleman et al. (2006) Proc Natl Acad Sci USA 103:5965-5970.) The surgical procedure used to generate the rat remnant kidney was performed according to modification of the procedure described by Priyadarshi et al. (supra) or according to modification of the procedure described by Tanaka et al. (2005, Lab Invest 85:1292-1307). Separate studies used either male Sprague Dawley rats (280-300 g) or female Wistar rats (220-250 g).
Animals were divided into two groups of which one group (sham) underwent sham surgery and the other group (Nx) was subjected to 5/6 nephrectomy as follows. Animals were anesthetized under isoflurane, and a midline abdominal incision was made, followed by blunt dissection of the renal pedicles. Two or three branches of the left renal artery were ligated to infarct two thirds of the left kidney, while the right kidney underwent simultaneous nephrectomy. The infarct was verified by observing the change in kidney color. Animal body temperature was maintained constant, and warm (˜37° C.) saline (1.0 mL) was administered directly into the abdomen. Thereafter, the incision was sutured and the animal was allowed to recover and have free access to regular food and water. Animal body weight and mortality were closely monitored.
Starting 35 days after surgery, Nx and sham animals were randomly divided into groups and treated with either vehicle or compound A. Compound was dosed three times per week by oral gavage at 20 or 40 mg/kg compound per dose. Blood pressure (BP) was measured using a Kent XBP1000 system (Kent Scientific Corp., Torrington, Conn.) or a Muromachi tail-cuff blood pressure system (Muromachi Kikai Co., Ltd., Tokyo, Japan), both having volume/pressure recording technology and used according to the manufacturer's instruction. Rats were slightly warmed under a lamp and conditioned carefully before the measurement. BP was recorded as the mean value of 3 separate measurements obtained at each session and reported herein as mean±SEM. Results are compared using 1-way analysis of variance (ANOVA) and Student-Newman-Keuls method (SigmaStat, SPSS Science, Chicago, Ill.).
In another series of experiments, rats subjected to 5/6 nephrectomy were treated 35 days after surgery according to the dosing schedule described in Example 3 above with a HIF prolyl hydroxylase inhibitor. Individual compound selected from the group consisting of compounds A and C-K were administered by oral gavage at 8, 20, 30, or 40 mg/kg (see Table 1 and Table 2). Systolic blood pressure was recorded at day 35 (baseline) and again immediately following the last dose of compound. Table 1 and Table 2 show changes in systolic blood pressure following four weeks of oral administration of various compounds of the present invention to Nx rats.

For the molecule `COc1ccc(Oc2ccc3c(O)c(C(=O)NCC(=O)O)ncc3c2)cc1` [C, {[4-hydroxy-7-(4-methoxy-phenoxy)-isoquinoline-3-carbonyl]-amino}-acetic acid], for the setting “30 mg/kg oral”, the “SBP (mmHg) Change from Baseline” value is recorded as −13.72 mmHg and the “SBP (mmHg) Change from Vehicle” value is on record as −34.03 mmHg.

In the case of `CC(C)Oc1ccc2c(O)c(C(=O)NCC(=O)O)nc(C#N)c2c1` [Compound D, [(1-cyano-4-hydroxy-7-isopropoxy-isoquinoline-3-carbonyl)-amino]-acetic acid], for the setting “8 mg/kg oral”, the “SBP (mmHg) Change from Baseline” value is reported as −22.14 mmHg and the “SBP (mmHg) Change from Vehicle” value is −12.4 mmHg. Moreover, where the note is “20 mg/kg oral”, the “SBP (mmHg) Change from Baseline” value was −9.25 mmHg and the “SBP (mmHg) Change from Vehicle” value is on record as −24.73 mmHg.

For the molecule `COc1cccc(Cn2ccc3c(O)c(C(=O)NCC(=O)O)nc(C#N)c32)c1` [E, {[7-cyano-4-hydroxy-1-(3-methoxy-benzyl)-1H-pyrrolo[2,3-c]pyridine-5-carbonyl]-amino}-acetic acid], where the note is “20 mg/kg oral”, the “SBP (mmHg) Change from Baseline” value was −7.12 mmHg and the “SBP (mmHg) Change from Vehicle” value is −18.55 mmHg.

Consider `N#Cc1nc(C(=O)NCC(=O)O)c(O)c2ccn(Cc3ccc4ccccc4c3)c12` [F, [(7-cyano-4-hydroxy-1-naphthalen-2-ylmethyl-1H-pyrrolo[2,3-c]pyridine-5-carbonyl)-amino]-acetic acid], for which, for the setting “8 mg/kg oral”, the “SBP (mmHg) Change from Baseline” value is reported as −10.58 mmHg and the “SBP (mmHg) Change from Vehicle” value was −23.88 mmHg.

Regarding `N#Cc1nc(C(=O)NCC(=O)O)c(O)c2ccn(Cc3ccccc3F)c12` [G, {[7-cyano-1-(2-fluoro-benzyl)-4-hydroxy-1H-pyrrolo[2,3-c]pyridine-5-carbonyl]-amino}-acetic acid], under “8 mg/kg oral”, the “SBP (mmHg) Change from Vehicle” value was −19.27 mmHg.

In the case of `COc1ccc(Cn2c(Cl)c(Cl)c3c(O)c(C(=O)NCC(=O)O)nc(C#N)c32)cc1` [H, {[2,3-dichloro-7-cyano-4-hydroxy-1-(4-methoxy-benzyl)-1H-pyrrolo[2,3-c]pyridine-5-carbonyl]-amino}-acetic acid], the “SBP (mmHg) Change from Vehicle” value (20 mg/kg oral) was −15.73 mmHg.

`N#Cc1nc(C(=O)NCC(=O)O)c(O)c2c(Oc3ccccc3)cccc12` [I, [(1-cyano-4-hydroxy-5-phenoxy-isoquinoline-3-carbonyl)-amino]-acetic acid]: the “SBP (mmHg) Change from Vehicle” value (20 mg/kg oral) is −11.00 mmHg.

On to `Cc1cccc(C)c1Oc1ccc2c(O)c(C(=O)NCC(=O)O)nc(C#N)c2c1` [J, {[1-cyano-7-(2,6-dimethyl-phenoxy)-4-hydroxy-isoquinoline-3-carbonyl]-amino}-acetic acid], for which the “SBP (mmHg) Change from Vehicle” value (8 mg/kg oral) is −2.66 mmHg.

As to `COc1ccc(Cn2cc(Br)c3c(O)c(C(=O)NCC(=O)O)nc(C#N)c32)cc1` [K, {[3-bromo-7-cyano-4-hydroxy-1-(4-methoxy-benzyl)-1H-pyrrolo[2,3-c]pyridine-5-carbonyl]-amino}-acetic acid], the “SBP (mmHg) Change from Vehicle” value (8 mg/kg oral) is on record as −19.92 mmHg.

Source of the values: US20140163061A1, “Methods For Reducing Blood Pressure” (FibroGen, Inc., priority 2008, published 2014).
